Assay results as given in ChEMBL document CHEMBL4507284, “Data for DCP probe BI-1230” (2021).

Columns and labels:
[1] = test system: Tyrosine-protein kinase ABL1 (Homo sapiens), P00519 [H396P]; conditions: Compound concentration 1000.0 nM
[2] = target: Atypical kinase COQ8B, mitochondrial (Homo sapiens) (UniProt Q96D53); conditions: Compound concentration 1000.0 nM
[3] = target: BMP-2-inducible protein kinase (Homo sapiens) (UniProt Q9NSY1); conditions: Compound concentration 1000.0 nM
[4] = target: Calcium/calmodulin-dependent protein kinase type 1 (Homo sapiens) (UniProt Q14012); conditions: Compound concentration 1000.0 nM
[5] = target: Calcium/calmodulin-dependent protein kinase type II subunit alpha (Homo sapiens) (UniProt Q9UQM7); conditions: Compound concentration 1000.0 nM
[6] = target: Calcium/calmodulin-dependent protein kinase type IV (Homo sapiens) (UniProt Q16566); conditions: Compound concentration 1000.0 nM
[7] = test system: Epidermal growth factor receptor (Homo sapiens), P00533 [G719C]; conditions: Compound concentration 1000.0 nM
[8] = target: Ephrin type-A receptor 3 (Homo sapiens) (UniProt P29320); conditions: Compound concentration 1000.0 nM
[9] = target: Ephrin type-A receptor 7 (Homo sapiens) (UniProt Q15375); conditions: Compound concentration 1000.0 nM
[10] = target: Ephrin type-A receptor 8 (Homo sapiens) (UniProt P29322); conditions: Compound concentration 1000.0 nM
[11] = target: Mitogen-activated protein kinase 4 (Homo sapiens) (UniProt P31152); conditions: Compound concentration 1000.0 nM
[12] = target: Serine/threonine-protein kinase/endoribonuclease IRE1 (Homo sapiens) (UniProt O75460); conditions: Compound concentration 1000.0 nM
[13] = test system: Fibroblast growth factor receptor 3 (Homo sapiens), P22607 [G697C]; conditions: Compound concentration 1000.0 nM
[14] = test system: Receptor-type tyrosine-protein kinase FLT3 (Homo sapiens), P36888 [UNDEFINED MUTATION]; conditions: Compound concentration 1000.0 nM
[15] = target: Receptor-type tyrosine-protein kinase FLT3 (Homo sapiens) (UniProt P36888); conditions: Compound concentration 1000.0 nM
[16] = target: Glycogen synthase kinase-3 alpha (Homo sapiens) (UniProt P49840); conditions: Compound concentration 1000.0 nM
[17] = target: Glycogen synthase kinase-3 beta (Homo sapiens) (UniProt P49841); conditions: Compound concentration 1000.0 nM
[18] = target: Homeodomain-interacting protein kinase 2 (Homo sapiens) (UniProt Q9H2X6); conditions: Compound concentration 1000.0 nM
[19] = target: Serine/threonine-protein kinase ICK (Homo sapiens) (UniProt Q9UPZ9); conditions: Compound concentration 1000.0 nM
[20] = target: Tyrosine-protein kinase JAK1 (Homo sapiens) (UniProt P23458); conditions: Compound concentration 1000.0 nM
[21] = target: Serine/threonine-protein kinase 10 (Homo sapiens) (UniProt O94804); conditions: Compound concentration 1000.0 nM
[22] = target: Leucine-rich repeat serine/threonine-protein kinase 2 (Homo sapiens) (UniProt Q5S007); conditions: Compound concentration 1000.0 nM
[23] = target: Serine/threonine-protein kinase MAK (Homo sapiens) (UniProt P20794); conditions: Compound concentration 1000.0 nM
[24] = target: Serine/threonine-protein kinase 4 (Homo sapiens) (UniProt Q13043); conditions: Compound concentration 1000.0 nM
[25] = target: Myosin light chain kinase 2, skeletal/cardiac muscle (Homo sapiens) (UniProt Q9H1R3); conditions: Compound concentration 1000.0 nM
[26] = target: Myosin-IIIa (Homo sapiens) (UniProt Q8NEV4); conditions: Compound concentration 1000.0 nM
[27] = target: Myosin-IIIb (Homo sapiens) (UniProt Q8WXR4); conditions: Compound concentration 1000.0 nM
[28] = target: Serine/threonine-protein kinase 38 (Homo sapiens) (UniProt Q15208); conditions: Compound concentration 1000.0 nM
[29] = target: Serine/threonine-protein kinase Nek3 (Homo sapiens) (UniProt P51956); conditions: Compound concentration 1000.0 nM
[30] = target: Serine/threonine-protein kinase PAK 3 (Homo sapiens) (UniProt O75914); conditions: Compound concentration 1000.0 nM
[31] = target: 3-phosphoinositide-dependent protein kinase 1 (Homo sapiens) (UniProt O15530); conditions: Compound concentration 1000.0 nM
[32] = target: Phosphatidylinositol 5-phosphate 4-kinase type-2 beta (Homo sapiens) (UniProt P78356); conditions: Compound concentration 1000.0 nM
[33] = target: cAMP-dependent protein kinase catalytic subunit beta (Homo sapiens) (UniProt P22694); conditions: Compound concentration 1000.0 nM
[34] = target: Receptor-interacting serine/threonine-protein kinase 1 (Homo sapiens) (UniProt Q13546); conditions: Compound concentration 1000.0 nM
[35] = target: Receptor-interacting serine/threonine-protein kinase 4 (Homo sapiens) (UniProt P57078); conditions: Compound concentration 1000.0 nM
[36] = target: Ribosomal protein S6 kinase alpha-5 (Homo sapiens) (UniProt O75582); conditions: Compound concentration 1000.0 nM
[37] = target: Serine/threonine-protein kinase 33 (Homo sapiens) (UniProt Q9BYT3); conditions: Compound concentration 1000.0 nM
[38] = target: Serine/threonine-protein kinase TBK1 (Homo sapiens) (UniProt Q9UHD2); conditions: Compound concentration 1000.0 nM
[39] = target: Serine/threonine-protein kinase ULK1 (Homo sapiens) (UniProt O75385); conditions: Compound concentration 1000.0 nM
[40] = target: Serine/threonine-protein kinase ULK2 (Homo sapiens) (UniProt Q8IYT8); conditions: Compound concentration 1000.0 nM
[41] = target: Serine/threonine-protein kinase WNK1 (Homo sapiens) (UniProt Q9H4A3); conditions: Compound concentration 1000.0 nM
[42] = target: Serine/threonine-protein kinase 32A (Homo sapiens) (UniProt Q8WU08); conditions: Compound concentration 1000.0 nM
[43] = target: Tyrosine-protein kinase ZAP-70 (Homo sapiens) (UniProt P43403); conditions: Compound concentration 1000.0 nM
[44] = target: Histamine H4 receptor (Homo sapiens) (UniProt Q9H3N8); conditions: Compound concentration 10.0 uM
[45] = target: Alpha-2C adrenergic receptor (Homo sapiens) (UniProt P18825); conditions: Compound concentration 10.0 uM
Sequence of Alpha-2C adrenergic receptor (Homo sapiens) (P18825 whole entry): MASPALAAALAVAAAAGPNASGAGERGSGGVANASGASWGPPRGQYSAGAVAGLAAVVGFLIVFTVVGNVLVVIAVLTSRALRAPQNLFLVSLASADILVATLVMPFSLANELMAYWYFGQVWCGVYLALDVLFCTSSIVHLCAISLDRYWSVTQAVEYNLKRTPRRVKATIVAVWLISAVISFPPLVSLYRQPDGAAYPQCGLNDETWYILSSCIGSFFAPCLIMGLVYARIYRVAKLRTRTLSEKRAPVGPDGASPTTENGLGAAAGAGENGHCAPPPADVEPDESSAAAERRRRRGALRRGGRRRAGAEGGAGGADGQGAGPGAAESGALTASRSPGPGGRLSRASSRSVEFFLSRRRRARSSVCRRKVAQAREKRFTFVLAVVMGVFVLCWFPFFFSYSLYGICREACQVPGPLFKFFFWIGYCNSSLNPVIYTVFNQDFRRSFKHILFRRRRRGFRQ

Sequence of Histamine H4 receptor (Homo sapiens) (Q9H3N8 whole entry): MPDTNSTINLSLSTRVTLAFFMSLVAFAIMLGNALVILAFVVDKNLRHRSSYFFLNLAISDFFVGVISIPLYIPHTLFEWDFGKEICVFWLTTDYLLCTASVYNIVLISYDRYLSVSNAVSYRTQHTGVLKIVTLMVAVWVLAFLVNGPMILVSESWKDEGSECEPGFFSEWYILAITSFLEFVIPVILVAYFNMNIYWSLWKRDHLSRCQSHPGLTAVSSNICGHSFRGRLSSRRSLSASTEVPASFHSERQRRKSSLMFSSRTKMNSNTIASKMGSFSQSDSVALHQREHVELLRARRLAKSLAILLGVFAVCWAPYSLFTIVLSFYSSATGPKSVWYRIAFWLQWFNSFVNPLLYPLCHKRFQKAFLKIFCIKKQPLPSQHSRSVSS
Sequence of Ribosomal protein S6 kinase alpha-5 (Homo sapiens) (O75582 whole entry, looked up): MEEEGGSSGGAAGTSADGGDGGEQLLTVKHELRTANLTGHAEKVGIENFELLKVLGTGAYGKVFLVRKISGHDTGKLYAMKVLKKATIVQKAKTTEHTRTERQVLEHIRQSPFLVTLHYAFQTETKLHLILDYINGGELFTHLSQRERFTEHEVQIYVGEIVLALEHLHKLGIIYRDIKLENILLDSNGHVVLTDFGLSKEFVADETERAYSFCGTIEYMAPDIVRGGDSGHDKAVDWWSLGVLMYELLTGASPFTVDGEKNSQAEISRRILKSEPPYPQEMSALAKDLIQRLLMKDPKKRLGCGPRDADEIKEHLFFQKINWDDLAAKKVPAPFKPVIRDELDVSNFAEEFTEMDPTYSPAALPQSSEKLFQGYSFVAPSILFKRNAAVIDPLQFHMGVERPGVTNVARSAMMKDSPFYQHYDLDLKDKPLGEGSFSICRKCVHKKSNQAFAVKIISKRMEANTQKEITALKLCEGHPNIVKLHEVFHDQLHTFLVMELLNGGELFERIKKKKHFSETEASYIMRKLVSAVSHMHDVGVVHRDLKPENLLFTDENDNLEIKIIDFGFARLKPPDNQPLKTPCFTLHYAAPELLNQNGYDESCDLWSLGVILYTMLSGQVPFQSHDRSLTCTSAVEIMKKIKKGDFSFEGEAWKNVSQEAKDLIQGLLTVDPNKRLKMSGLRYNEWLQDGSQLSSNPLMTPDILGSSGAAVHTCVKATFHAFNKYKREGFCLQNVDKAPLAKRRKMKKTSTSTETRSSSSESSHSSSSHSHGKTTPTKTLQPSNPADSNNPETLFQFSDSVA
Sequence of Fibroblast growth factor receptor 3 (Homo sapiens), P22607 [G697C] (P22607 whole entry G697C): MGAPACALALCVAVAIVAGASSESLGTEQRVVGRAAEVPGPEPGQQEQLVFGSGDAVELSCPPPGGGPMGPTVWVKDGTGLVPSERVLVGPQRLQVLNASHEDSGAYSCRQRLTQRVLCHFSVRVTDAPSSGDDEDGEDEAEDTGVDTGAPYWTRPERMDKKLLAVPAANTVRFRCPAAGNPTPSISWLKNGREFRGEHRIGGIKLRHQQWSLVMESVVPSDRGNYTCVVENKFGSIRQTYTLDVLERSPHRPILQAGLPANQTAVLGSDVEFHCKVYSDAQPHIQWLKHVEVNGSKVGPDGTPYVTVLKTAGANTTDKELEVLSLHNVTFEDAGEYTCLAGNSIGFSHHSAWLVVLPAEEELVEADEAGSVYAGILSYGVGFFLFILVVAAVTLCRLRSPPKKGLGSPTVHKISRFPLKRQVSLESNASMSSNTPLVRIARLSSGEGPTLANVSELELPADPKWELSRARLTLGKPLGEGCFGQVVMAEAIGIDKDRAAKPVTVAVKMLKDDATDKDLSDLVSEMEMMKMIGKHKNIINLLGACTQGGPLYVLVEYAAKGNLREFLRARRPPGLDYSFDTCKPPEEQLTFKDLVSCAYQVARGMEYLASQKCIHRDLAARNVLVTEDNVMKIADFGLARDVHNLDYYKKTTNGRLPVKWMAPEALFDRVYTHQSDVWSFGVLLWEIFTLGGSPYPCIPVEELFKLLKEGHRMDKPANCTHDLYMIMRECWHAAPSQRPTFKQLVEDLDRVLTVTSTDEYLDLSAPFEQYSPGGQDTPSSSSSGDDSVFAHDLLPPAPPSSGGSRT
Sequence of Serine/threonine-protein kinase MAK (Homo sapiens) (P20794 whole entry): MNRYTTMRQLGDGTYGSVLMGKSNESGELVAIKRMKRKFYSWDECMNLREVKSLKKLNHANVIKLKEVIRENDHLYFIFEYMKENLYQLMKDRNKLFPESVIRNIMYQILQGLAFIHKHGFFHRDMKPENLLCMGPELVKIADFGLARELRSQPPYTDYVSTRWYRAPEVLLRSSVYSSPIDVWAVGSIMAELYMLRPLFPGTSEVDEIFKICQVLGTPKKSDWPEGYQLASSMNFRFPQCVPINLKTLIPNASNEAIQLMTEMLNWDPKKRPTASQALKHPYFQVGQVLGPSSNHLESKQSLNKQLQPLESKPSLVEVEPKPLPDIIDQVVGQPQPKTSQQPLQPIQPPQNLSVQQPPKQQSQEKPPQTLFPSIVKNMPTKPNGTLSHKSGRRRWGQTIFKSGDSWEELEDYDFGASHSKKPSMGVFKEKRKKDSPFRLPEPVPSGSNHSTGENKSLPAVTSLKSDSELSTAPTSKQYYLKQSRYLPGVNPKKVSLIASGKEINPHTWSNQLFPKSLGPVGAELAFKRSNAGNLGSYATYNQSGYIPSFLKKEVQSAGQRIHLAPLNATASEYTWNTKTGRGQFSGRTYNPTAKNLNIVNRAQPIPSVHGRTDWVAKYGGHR
Sequence of Myosin light chain kinase 2, skeletal/cardiac muscle (Homo sapiens) (Q9H1R3 whole entry): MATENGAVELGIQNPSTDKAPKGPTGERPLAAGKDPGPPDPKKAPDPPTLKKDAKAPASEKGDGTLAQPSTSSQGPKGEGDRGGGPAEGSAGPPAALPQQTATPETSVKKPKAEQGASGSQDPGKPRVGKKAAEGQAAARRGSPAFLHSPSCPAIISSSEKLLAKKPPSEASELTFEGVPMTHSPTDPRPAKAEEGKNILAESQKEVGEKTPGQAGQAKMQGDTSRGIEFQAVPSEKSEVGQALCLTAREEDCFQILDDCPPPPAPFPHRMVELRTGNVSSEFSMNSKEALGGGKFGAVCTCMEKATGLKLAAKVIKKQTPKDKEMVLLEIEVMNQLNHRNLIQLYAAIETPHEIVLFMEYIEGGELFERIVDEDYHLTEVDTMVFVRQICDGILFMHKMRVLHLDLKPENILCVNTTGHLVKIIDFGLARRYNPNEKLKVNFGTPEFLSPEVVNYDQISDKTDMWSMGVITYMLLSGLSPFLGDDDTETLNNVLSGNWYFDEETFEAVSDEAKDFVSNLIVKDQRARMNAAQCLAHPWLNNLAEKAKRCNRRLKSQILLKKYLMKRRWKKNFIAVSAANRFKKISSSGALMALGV
Sequence of BMP-2-inducible protein kinase (Homo sapiens) (Q9NSY1 whole entry, looked up): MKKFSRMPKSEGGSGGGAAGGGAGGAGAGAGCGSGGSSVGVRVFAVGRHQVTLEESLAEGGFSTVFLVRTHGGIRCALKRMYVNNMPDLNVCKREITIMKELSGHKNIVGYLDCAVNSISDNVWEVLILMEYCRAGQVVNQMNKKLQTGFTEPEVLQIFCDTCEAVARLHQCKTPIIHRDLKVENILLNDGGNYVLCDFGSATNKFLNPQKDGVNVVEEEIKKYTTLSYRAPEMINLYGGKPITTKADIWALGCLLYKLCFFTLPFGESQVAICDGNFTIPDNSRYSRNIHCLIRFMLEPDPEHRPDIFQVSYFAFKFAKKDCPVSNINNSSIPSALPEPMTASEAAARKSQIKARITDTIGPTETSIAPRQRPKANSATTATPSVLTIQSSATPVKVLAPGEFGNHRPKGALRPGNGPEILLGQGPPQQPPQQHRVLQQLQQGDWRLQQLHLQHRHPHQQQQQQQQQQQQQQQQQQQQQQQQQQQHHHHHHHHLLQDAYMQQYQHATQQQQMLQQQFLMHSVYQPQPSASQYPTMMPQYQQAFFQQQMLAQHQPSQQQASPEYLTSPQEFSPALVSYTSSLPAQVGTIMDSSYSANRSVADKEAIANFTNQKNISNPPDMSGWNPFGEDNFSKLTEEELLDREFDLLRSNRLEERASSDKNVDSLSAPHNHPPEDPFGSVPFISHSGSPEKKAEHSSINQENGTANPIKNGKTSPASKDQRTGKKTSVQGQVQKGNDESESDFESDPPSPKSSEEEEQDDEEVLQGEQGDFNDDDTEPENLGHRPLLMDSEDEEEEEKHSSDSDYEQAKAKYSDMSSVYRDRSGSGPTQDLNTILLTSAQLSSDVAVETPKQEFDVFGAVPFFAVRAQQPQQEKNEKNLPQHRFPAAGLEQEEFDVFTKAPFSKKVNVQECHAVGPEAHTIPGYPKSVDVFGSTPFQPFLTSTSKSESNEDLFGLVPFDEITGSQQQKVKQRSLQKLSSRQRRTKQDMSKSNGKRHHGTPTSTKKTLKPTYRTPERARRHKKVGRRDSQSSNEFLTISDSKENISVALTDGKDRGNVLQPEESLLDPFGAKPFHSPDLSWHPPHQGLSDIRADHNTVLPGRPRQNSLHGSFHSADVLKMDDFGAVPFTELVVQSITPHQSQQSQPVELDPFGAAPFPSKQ

## COc1ccc2c(O[C@@H]3C[C@H]4C(=O)N[C@]5(C(=O)O)CC5/C=C\CCCCC[C@H](NC(=O)OC5CCCC5)C(=O)N4C3)cc(-c3csc(NC(=O)C(C)C)n3)nc2c1C (stereo not given in full) [BI 1230]
[1]
  residual activity: 77%
[2]
  residual activity: 100%
[3]
  residual activity: 90%
[4]
  residual activity: 100%
[5]
  residual activity: 100%
[6]
  residual activity: 95%
[7]
  residual activity: 76%
[8]
  residual activity: 97%
[9]
  residual activity: 100%
[10]
  residual activity: 100%
[11]
  residual activity: 93%
[12]
  residual activity: 79%
[13]
  residual activity: 88%
[14]
  residual activity: 97%
[15]
  residual activity: 87%
[16]
  residual activity: 100%
[17]
  residual activity: 100%
[18]
  residual activity: 68%
[19]
  residual activity: 68%
[20]
  residual activity: 75%
[21]
  residual activity: 100%
[22]
  residual activity: 92%
[23]
  residual activity: 100%
[24]
  residual activity: 100%
[25]
  residual activity: 100%
[26]
  residual activity: 100%
[27]
  residual activity: 68%
[28]
  residual activity: 50%
[29]
  residual activity: 76%
[30]
  residual activity: 100%
[31]
  residual activity: 99%
[32]
  residual activity: 100%
[33]
  residual activity: 100%
[34]
  residual activity: 100%
[35]
  residual activity: 65%
[36]
  residual activity: 100%
[37]
  residual activity: 54%
[38]
  residual activity: 86%
[39]
  residual activity: 93%
[40]
  residual activity: 95%
[41]
  residual activity: 100%
[42]
  residual activity: 78%
[43]
  residual activity: 100%
[44]
  inhibition: 43.5%
[45]
  inhibition: 56.8%

## O=C(N[C@H]1CCCCC/C=C\C2C[C@@]2(C(=O)O)NC(=O)[C@@H]2C[C@@H](Oc3ccncc3)CN2C1=O)OC1CCCC1 (stereo not given in full) [BI 1675]
[1]
  residual activity: 81%
[2]
  residual activity: 100%
[3]
  residual activity: 96%
[4]
  residual activity: 87%
[5]
  residual activity: 95%
[6]
  residual activity: 90%
[7]
  residual activity: 59%
[8]
  residual activity: 86%
[9]
  residual activity: 100%
[10]
  residual activity: 100%
[11]
  residual activity: 100%
[12]
  residual activity: 80%
[13]
  residual activity: 100%
[14]
  residual activity: 100%
[15]
  residual activity: 100%
[16]
  residual activity: 100%
[17]
  residual activity: 89%
[18]
  residual activity: 100%
[19]
  residual activity: 85%
[20]
  residual activity: 89%
[21]
  residual activity: 99%
[22]
  residual activity: 100%
[23]
  residual activity: 82%
[24]
  residual activity: 100%
[25]
  residual activity: 100%
[26]
  residual activity: 94%
[27]
  residual activity: 38%
[28]
  residual activity: 97%
[29]
  residual activity: 100%
[30]
  residual activity: 88%
[31]
  residual activity: 92%
[32]
  residual activity: 100%
[33]
  residual activity: 100%
[34]
  residual activity: 88%
[35]
  residual activity: 94%
[36]
  residual activity: 89%
[37]
  residual activity: 89%
[38]
  residual activity: 100%
[39]
  residual activity: 100%
[40]
  residual activity: 100%
[41]
  residual activity: 90%
[42]
  residual activity: 89%
[43]
  residual activity: 96%
[44]
  inhibition: -8.87%
[45]
  inhibition: -4.47%
